The test system of one data set is C. albicans ATCC MYA-573. Description: Antifungal activity (GI80), growth inhibition in YPD20 medium by absorbance at 600 nm. Type of data set: cell-based. Particulars: minimum concentration for at least 80% cell growth inhibition, 37° C., absorbance 600 nm; for IC80: Candida albicans, read-out: GI80 (μg/ml) C. albicans ATCC MYA-573. On the procedure:
(§1) The antifungal activity of the compounds of the invention was determined according to the method mentioned below.
(§2) An YPD20 medium (1% yeast extract, 2% peptone, 20% glucose) was used,
(§3) (2) Preparation of Cell Liquid for Inoculation:
(§4) Cells incubated overnight with Sabouraud dextrose agar at 30° C. were suspended in 0.1% Tween 80-added saline, and then added to a concentrated medium (1.33% yeast extract, 2.67% peptone, 13.33% glucose) so that the final cell concentration could be 5×10^3 cells/ml, thereby preparing a cell liquid for inoculation.
(§5) (3) Production of Chemical Dilution Plate:
(§6) A metered sample was dissolved in dimethyl sulfoxide, and a 2-fold dilution series was prepared using dimethyl sulfoxide. A chemical dilution of 2 μl each was added to a flat-bottom 96-well plate with 40% glucose (48 μl) put in each well, thereby producing a chemical dilution plate.
(§7) (4) Inoculation and Cultivation of Cell Liquid:
(§8) The cell liquid (150 μl) prepared in (2) was added to the chemical dilution plate produced in (3), followed by aerobic static cultivation at 37° C.
(§9) (5) Determination of Antifungal Activity (GI80 Value):
(§10) After cultivation for […], the plate was stirred, and its absorbance (600 nm) was measured. Based on the absorbance as the index, the minimum chemical concentration for at least 80% cell growth inhibition relative to the cell growth in the chemical-free well was computed as a GI80 value.

The next data set relates to C. albicans ATCC90028. Described as above. It counts as cell-based. To be noted: 37° C., absorbance 600 nm; for IC80: Candida albicans, ATCC90028, minimum concentration for at least 80% cell growth inhibition, read-out: GI80 (μg/ml) C. albicans ATCC90028; for GI80 (μg/ml) C. albicans ATCC90028: minimum concentration for at least 80% cell growth inhibition. Here is the method: as §1, §2, §3, §4, §5, §6, §7, §8, §9, §10

In a further data set the test system is C. glabrata ATCC48435. The data set is described as above. Type of data set: cell-based. Particulars: 37° C., absorbance 600 nm; for IC80: Nakaseomyces glabratus, ATCC48435, minimum concentration for at least 80% cell growth inhibition, read-out: GI80 (μg/ml) C. glabrata ATCC48435; for GI80 (μg/ml) C. glabrata ATCC48435: minimum concentration for at least 80% cell growth inhibition. On the procedure:
as §1, §2, §3, §4, §5, §6, §7, §8, §9, §10

In brackets after ≈: the same amount, converted by molar mass. Where only a bound is given, the exact number is not on record here.

As a reminder, the melting point is the temperature, or range, at which the solid turns liquid. `Cc1c(Br)c(N2CC[C@H](N(C)C)C2)c2oc(C3CC3)nc2c1C#N` gave a melting point of 82 to 86 °C. The same measure, in the same setting: next, `Cc1c(-c2ccccc2)c(N2CC[C@H](N(C)C)C2)c2oc(C(C)C)nc2c1C#N.Cl`: 168 to 170 °C (dec.); `Cc1c(-c2ccccc2)c(N2CC[C@H](N(C)C)C2)c2oc(N3CC(CC(=O)O)C3)nc2c1C#N`: 125 to 128 °C. Regarding `Cc1c(-c2ccccc2)c(C2=CC(N(C)C)CC2)c2oc(C(C)(C)C)nc2c1C#N` (stereo not drawn) [Example 3, 2-tert-Butyl-7-[3-(dimethylamino)cyclopent-1-en-1-yl]-5-methyl-6-phenyl-1,3-benzoxazole-4-carbonitrile], the melting point fell in the range of 114 to 116 °C. In turn, `Cc1c(-c2ccccc2)c(C2=CC(N(C)C)CC2)c2oc(C3CC3)nc2c1C#N` (stereo not drawn) [Example 8, 2-Cyclopropyl-7-(3-dimethylaminocyclopent-1-en-1-yl)-5-methyl-6-phenyl-1,3-benzoxazole-4-carbonitrile] returned a melting point of 144 to 146 °C. As to `Cc1c(-c2ccccc2)c(N2CC(N(C)C)C2)c2oc(C(C)(C)C)nc2c1C#N` [Example 15, 2-Tert-butyl-5-methyl-7-(3-dimethylaminoazetidin-1-yl)-6-phenyl-1,3-benzoxazole-4-carbonitrile], the melting point lay in the range of 211 to 212 °C. Same read-out and setting: for `Cc1c(-c2ccco2)c(N2CC[C@H](N(C)C)C2)c2oc(C3CC3)nc2c1C#N` [Example 18, 2-Cyclopropyl-7-[(3S)-3-(dimethylamino)pyrrolidin-1-yl]-6-(2-furyl)-5-methyl-1,3-benzoxazole-4-carbonitrile] the value was 158 to 159 °C.

Take `Cc1c(-c2ccccn2)c(N2CC[C@H](N(C)C)C2)c2oc(C3CC3)nc2c1C#N` [Example 20, 2-Cyclopropyl-7-[(3S)-3-(dimethylamino)pyrrolidin-1-yl]-5-methyl-6-(pyridin-2-yl)-1,3-benzoxazole-4-carbonitrile]: the melting point was in the range of 150 to 151 °C. Same read-out and setting: for `Cc1c(-c2cnccn2)c(N2CC[C@H](N(C)C)C2)c2oc(C3CC3)nc2c1C#N` [Example 21, 2-Cyclopropyl-7-[(3S)-3-(dimethylamino)pyrrolidin-1-yl]-5-methyl-6-(pyrazin-2-yl)-1,3-benzoxazole-4-carbonitrile] the value was 157 to 159 °C; for `CC(=O)c1c(C)c(C#N)c2nc(C3CC3)oc2c1N1CC[C@H](N(C)C)C1` [Example 26, 6-Acetyl-2-cyclopropyl-7-[(3S)-3-(dimethylamino)pyrrolidin-1-yl]-5-methyl-1,3-benzoxazole-4-carbonitrile], 142 °C; for `CNC(=O)c1nc2c(C#N)c(C)c(-c3ccccc3)c(N3CC[C@H](N(C)C)C3)c2o1` [Example 39, 4-Cyano-7-[(3S)-3-(dimethylamino)pyrrolidin-1-yl]-N,5-dimethyl-6-phenyl-1,3-benzoxazole-2-carboxamide], 214 to 216 °C. For `Cc1c(-c2ccccc2)c(N2CC[C@@H](N(C)C)C2)c2oc(C(=O)N(C)C)nc2c1C#N` [Example 40-2, 4-Cyano-N,N,5-trimethyl-7-[(3R)-3-(dimethylamino)pyrrolidin-1-yl]-6-phenyl-1,3-benzoxazole-2-carboxamide], the melting point was in the range of 67 to 70 °C.

As to `CN[C@@H]1CCN(c2c(-c3ccccc3)c(C)c(C#N)c3nc(C(=O)N(C)C)oc23)C1` [Example 40-3, 4-Cyano-N,N,5-trimethyl-7-[(3R)-3-(methylamino)pyrrolidin-1-yl]-6-phenyl-1,3-benzoxazole-2-carboxamide], the melting point was in the range of 145 to 148 °C. For the compound `Cc1cc2c(c(N3CC[C@H](N(C)C)C3)c1-c1ccccc1)OC(C#N)(C(=O)N1CCCCC1)N2` (stereo partly drawn) [Example 43, 7-[(3S)-3-(dimethylamino)pyrrolidin-1-yl]-5-methyl-6-phenyl-2-(piperidin-1-ylcarbonyl)-1,3-benzoxazole-2-carbonitrile], the melting point fell in the range of 170 to 173 °C.

For `Cc1c(-c2ccccc2)c(N2CC[C@H](N(C)C)C2)c2oc(C(=O)N(C)CCc3ccccc3)nc2c1C#N` [Example 46, 4-Cyano-7-[(3S)-3-(dimethylamino)pyrrolidin-1-yl]-N,5-dimethyl-6-phenyl-N-(2-phenylethyl)-1,3-benzoxazole-2-carboxamide], the melting point fell in the range of 138 to 141 °C. As for `Cc1c(-c2cc(F)ccc2F)c(N2CC[C@H](N(C)C)C2)c2oc(C3CC3)nc2c1C#N` [Example 144-5, 2-Cyclopropyl-6-(2,5-difluorophenyl)-7-[(3S)-3-(dimethylamino)pyrrolidin-1-yl]-5-methyl-1,3-benzoxazole-4-carbonitrile], the IC80 with C. albicans ATCC MYA-573 is 0.25 µg/mL (≈ 0.592 µM); in the data set with C. albicans ATCC90028 it was 0.125 µg/mL (≈ 0.296 µM); with C. glabrata ATCC48435, 0.032 µg/mL (≈ 0.0757 µM). Take `COc1cccc(-c2c(C)c(C#N)c3nc(C4CC4)oc3c2N2CC[C@H](N(C)C)C2)c1` [Example 144-11, 2-Cyclopropyl-7-[(3S)-3-(dimethylamino)pyrrolidin-1-yl]-6-(3-methoxyphenyl)-5-methyl-1,3-benzoxazole-4-carbonitrile]: the IC80 was found to be 0.5 µg/mL (≈ 1.2 µM) in the data set with C. albicans ATCC MYA-573, 0.25 µg/mL (≈ 0.6 µM) in the data set on C. albicans ATCC90028 and 0.125 µg/mL (≈ 0.3 µM) in the data set with C. glabrata ATCC48435.

On to `CN[C@H]1CCN(c2c(-c3cccs3)c(C)c(C#N)c3nc(C(=O)N(C)C)oc23)C1` [Example 145, 4-Cyano-N,N,5-trimethyl-7-[(3S)-3-(methylamino)pyrrolidin-1-yl]-6-(thiophen-2-yl)-1,3-benzoxazole-2-carboxamide], for which the IC80 was 0.5 µg/mL (≈ 1.22 µM) in the data set on C. albicans ATCC MYA-573, 0.5 µg/mL (≈ 1.22 µM) with C. albicans ATCC90028 and 0.125 µg/mL (≈ 0.305 µM) in the data set on C. glabrata ATCC48435. As to `CN[C@H]1CCN(c2c(-c3cccc(Cl)c3)c(C)c(C#N)c3nc(C(=O)N(C)C)oc23)C1` [Example 146, 6-(3-Chlorophenyl)-4-cyano-N,N,5-trimethyl-7-[(3S)-3-(methylamino)pyrrolidin-1-yl]-1,3-benzoxazole-2-carboxamide], the results for the IC80 with C. albicans ATCC MYA-573, with C. albicans ATCC90028 and in the data set on C. glabrata ATCC48435 were 0.25 µg/mL (≈ 0.571 µM), 0.125 µg/mL (≈ 0.285 µM) and 0.125 µg/mL (≈ 0.285 µM), respectively. Consider `CN[C@H]1CCN(c2c(-c3cccc(C)c3)c(C)c(C#N)c3nc(C(=O)N(C)C)oc23)C1` [Example 146-2, 4-Cyano-N,N,5-trimethyl-7-[(3S)-3-(methylamino)pyrrolidin-1-yl]-6-(3-methylphenyl)-1,3-benzoxazole-2-carboxamide], for which the figures for the IC80 with C. albicans ATCC MYA-573, in the data set with C. albicans ATCC90028 and in the data set on C. glabrata ATCC48435 were 0.25 µg/mL (≈ 0.599 µM), 0.125 µg/mL (≈ 0.299 µM) and 0.063 µg/mL (≈ 0.151 µM), respectively. The matching figures for `Cc1c(-n2cccc2)c(N2CC[C@H](N(C)C)C2)c2oc(C3CC3)nc2c1C#N` [Example 151, 2-Cyclopropyl-7-[(3S)-3-(dimethylamino)pyrrolidin-1-yl]-5-methyl-6-(pyrrol-1-yl)-1,3-benzoxazole-4-carbonitrile]: 1 µg/mL (≈ 2.66 µM), 2 µg/mL (≈ 5.33 µM) and 0.25 µg/mL (≈ 0.666 µM). Turning to `Cc1c(-c2ccccc2)c(N2CCC[C@H]2CN(C)C)c2oc(C3CC3)nc2c1C#N` [Example 154, 2-Cyclopropyl-7-{(2S)-2-[(dimethylamino)methyl]pyrrolidin-1-yl}-5-methyl-6-phenyl-1,3-benzoxazole-4-carbonitrile], the IC80 with C. albicans ATCC MYA-573 worked out at 1 µg/mL (≈ 2.5 µM); in the data set with C. albicans ATCC90028, 1 µg/mL (≈ 2.5 µM); in the data set with C. glabrata ATCC48435 it was 0.25 µg/mL (≈ 0.624 µM). For `CNC[C@H]1CCN1c1c(-c2ccccc2)c(C)c(C#N)c2nc(C(=O)N(C)C)oc12` [Example 155], the “GI80 (μg/ml) C. albicans ATCC MYA-573” value with C. albicans ATCC MYA-573 was determined as 2 µg/mL (≈ 4.96 µM). In addition, the “GI80 (μg/ml) C. albicans ATCC90028” value with C. albicans ATCC90028 is 0.5 µg/mL (≈ 1.24 µM). Also, the “GI80 (μg/ml) C. glabrata ATCC48435” value with C. glabrata ATCC48435 is 0.125 µg/mL (≈ 0.31 µM).

In the case of `CNC1=CC(c2c(-c3ccccc3)c(C)c(C#N)c3nc(C(=O)N(C)C)oc23)CC1` (stereo not drawn) [Example 156-1, 4-Cyano-N,N,5-trimethyl-7-[3-(methylamino)cyclopent-2-enyl]-6-phenyl-1,3-benzoxazole-2-carboxamide], the figures for the IC80 in the data set with C. albicans ATCC MYA-573, with C. albicans ATCC90028 and in the data set on C. glabrata ATCC48435 were 0.25 µg/mL (≈ 0.624 µM), 0.25 µg/mL (≈ 0.624 µM) and 0.063 µg/mL (≈ 0.157 µM), respectively.

Take `CN[C@H]1CCN(c2c(-c3csc(C)n3)c(C)c(C#N)c3nc(C(=O)N(C)C)oc23)C1` [Example 158, 4-Cyano-N,N,5-trimethyl-7-[(3S)-3-(methylamino)pyrrolidin-1-yl]-6-(2-methyl-1,3-thiazol-4-yl)-1,3-benzoxazole-2-carboxamide]: the “GI80 (μg/ml) C. albicans ATCC MYA-573” value in the data set with C. albicans ATCC MYA-573 stood at 2 µg/mL (≈ 4.71 µM). Further, the “GI80 (μg/ml) C. albicans ATCC90028” value with C. albicans ATCC90028 worked out at 0.5 µg/mL (≈ 1.18 µM). For the same compound, in the data set with C. glabrata ATCC48435, the “GI80 (μg/ml) C. glabrata ATCC48435” value came to 0.25 µg/mL (≈ 0.589 µM).

For `OC(Cn1cncn1)(Cn1cncn1)c1ccc(F)cc1F` [FCZ, Fluconazole, reference compound], the IC80 in the data set with C. albicans ATCC MYA-573 was greater than 4 µg/mL; in the data set with C. albicans ATCC90028, 0.25 µg/mL (≈ 0.816 µM); with C. glabrata ATCC48435, greater than 4 µg/mL. As for `CCC(C)n1ncn(-c2ccc(N3CCN(c4ccc(OCC5COC(Cn6cncn6)(c6ccc(Cl)cc6Cl)O5)cc4)CC3)cc2)c1=O` (stereo not drawn) [ITZ, Itraconazole, reference compound], the “GI80 (μg/ml) C. albicans ATCC MYA-573” value with C. albicans ATCC MYA-573 is 0.125 µg/mL (≈ 0.177 µM). Further, the “GI80 (μg/ml) C. albicans ATCC90028” value in the data set with C. albicans ATCC90028 is less than 0.016 µg/mL. In addition, the “GI80 (μg/ml) C. glabrata ATCC48435” value with C. glabrata ATCC48435 turned out to be 0.25 µg/mL (≈ 0.354 µM).

The values above are taken from patent US7737166B2, “Antifungal bicyclic hetero ring compounds” (Daiichi Sankyo Company, Limited, priority 2005, dated 2010).
